Here are results for 20 molecules from article PMC6269853, “Synthesis and Biological Evaluation of Unsymmetrical Curcumin Analogues as Tyrosinase Inhibitors” (Molecules, 2013).

For series [1], the target named is mushroom tyrosinase. As to the kind of experiment: Diphenolase inhibitory activity of mushroom tyrosinase (L-DOPA oxidation, spectrophotometric). It counts as biochemical. Conditions: for IC50: L-DOPA 0.5 mM, pH 6.8, 25 °C. The method, then: UCAs 3a–k, 4a–i were subjected to tyrosinase inhibitory assays by measuring the oxidation of L-DOPA according to the literature protocol.
The spectrophotometric assay for tyrosinase was performed according to the reported method with slight modifications. Briefly, all the synthesized compounds were screened for the diphenolase inhibitory activity of tyrosinase using L-DOPA as the substrate. All compounds were dissolved in DMSO. The final concentration of the test solution was 2.0%. Phosphate buffer (pH = 6.8) was used to dilute the DMSO stock solution of test compounds. Thirty units of mushroom tyrosinase (0.5 mg/mL) were firstly pre-incubated with these compounds in 50 mM phosphate buffer (pH = 6.8) at 25 °C for 10 min. L-DOPA (0.5 mM) was then added to the reaction mixture and the enzyme reaction was monitored by measuring the change in absorbance at 475 nm of the formation of L-DOPA chrome for 1 min. The measurement was performed for three times for each concentration and averaged before further calculations. IC50 values were determined by the interpolation of the dose–response curves.

The test system of series [2] is mushroom tyrosinase. As to the kind of experiment: Inhibition kinetics by Lineweaver-Burk plots. It counts as biochemical. Particulars: oxidation of L-DOPA. The method, then: The inhibitory mechanism of selected compounds 3c, 3d, 3i and 3j against mushroom tyrosinase during the oxidation of L-DOPA was determined by the same methods. […] However, 3d and 3j containing m-dihydroxyl groups on ring B were competitive inhibitors because the intersection of those straight lines was on the Y-axis.
Concentrations of 3c, 3d, 3i and 3j for curves 1–3 were 0.0 μM, 4.06 μM, 12.18 μM; 0.0 μM, 4.06 μM, 16.23 μM; 0.0 μM, 14.8 μM, 59.2 μM; 0.0 μM, 3.70 μM, 11.09 μM, respectively.
Pre-incubation and measurement time was the same as the procedure in section 3.3. Maximal initial velocity was determined from initial linear portion of absorbance between 0 and 60 s after addition of mushroom tyrosinase. The inhibition type on the enzyme was assayed by Lineweaver–Burk plots, and the inhibition constant was determined by the second plots of the apparent Km/Vm or 1/Vm versus the concentration of compound. The same procedure was executed for other compounds.

The next series concerns CD-1 mice. As to the kind of experiment: Acute oral toxicity in mice (OECD 423). It counts as in vivo. Particulars: for Body Weight: last day; for Drinking Water / Food Intake: measured daily and averaged; for autopsy, changes in organs: mice, 1,200 mg/kg, end of experimental period (14 days). The method, then: 3d and 3j were used as the representative compounds to evaluate the toxicity in mice.
The acute toxicity of compound 3d was examined according to the OECD 423 Guideline for Testing of Chemicals Acute Oral Toxicity – Acute Toxic Class Method procedures. The test procedure was applied with an initial dose at 1,200 mg/kg. Male and female CD-1 mice (six males and six females; 7~8 weeks old) were obtained from Center of Animal Test of the Sun Yat-sen University, housed in the University-approved animal facility in rooms maintained at 22 ± 2 °C with 55%–60% humidity and 12 h photoperiod. After five-day adaptation to laboratory conditions, mice were divided into four equal groups (controls: male, female, and treated: male and female, three animals in each group, equal body mass) and given by gavage either a single dosage of 1,200 mg 3d (dispersed in 3% Tween 80 aqueous solution)/kg, and equal volumes of distilled water containing 3% Tween 80 for control groups, using a suitably graduated syringe and a stainless steel intubation cannula. Mice had free access to distilled water and commercial standard diet. Animals were observed individually after dosing at least once during the first 30 min, periodically during the first 24 h, with special attention given during the first 4 h, and daily thereafter, for a total of 14 days. All observations were systematically recorded with individual records being maintained for each animal. Individual body weight of animals was determined shortly before the test substance was administered and weekly thereafter. All the animals were sacrificed at the end of the observation period and subjected to a necropsy. The same procedure was performed for compound 3j.

“1-(3,4-Dihydroxyphenyl)-5-(4-hydroxy-3-methoxyphenyl)penta-1,4-dien-3-one [Compound 4g]” gave an IC50 on mushroom tyrosinase [1] greater than 200 µM.
As to “1-(3,4-Dihydroxyphenyl)-5-(4-methoxyphenyl)penta-1,4-dien-3-one [Compound 4i]”, the IC50 on mushroom tyrosinase [1] is greater than 200 µM.
The molecule “1-(4-Hydroxy-3,5-dimethoxyphenyl)-5-(4-hydroxy-3-methoxyphenyl)penta-1,4-dien-3-one [Compound 4h]” had an IC50 on mushroom tyrosinase [1] of less than 100 µM. For the same molecule, the “fold difference in activity versus 4c” value in the series with mushroom tyrosinase [1] (decrease relative to 4c (IC50 = 4.64 μM)) is greater than 16 fold.
In turn, `CCCCc1ccc(O)cc1O` [4-Butylresorcinol, reference compound] registered a 50% inhibitory concentration (IC50) against mushroom tyrosinase [1] of 11.3 µM.
The molecule `COc1ccc(C=C2CCC(=Cc3ccc(O)cc3)C2=O)cc1` [Compound 3a, 2-(4-Hydroxybenzylidene)-5-(4-methoxybenzylidene)cyclopentanone] showed a melting point of 241 to 243 °C. 189 µM corresponded to half-maximal inhibition against mushroom tyrosinase [1] (IC50).
`COc1cc(C=C2CCC(=Cc3ccc(O)cc3)C2=O)ccc1O` [Compound 3b, 2-(4-Hydroxy-3-methoxybenzylidene)-5-(4-hydroxybenzylidene)cyclopentanone] had a melting point of 278 to 280 °C. For the same molecule, half-maximal inhibition at mushroom tyrosinase [1] (IC50) required 56.6 µM. Also, in the series on mushroom tyrosinase [1] (decrease relative to 3c), the “fold difference in activity versus 3c” value is reported as greater than 8 fold.
Molecule `O=C1C(=Cc2ccc(O)cc2)CCC1=Cc1ccc(O)c(O)c1` [Compound 3c, 2-(3,4-Dihydroxybenzylidene)-5-(4-hydroxybenzylidene)cyclopentanone] yielded a melting point greater than 300 °C. The molecule further registered an IC50 at mushroom tyrosinase [1] of 7.78 µM. Besides, the inhibition type result with mushroom tyrosinase [2] was “mixed-competitive”.
Take `O=C1C(=Cc2ccc(O)cc2)CCC1=Cc1ccc(O)cc1O` [Compound 3d, 2-(2,4-Dihydroxybenzylidene)-5-(4-hydroxybenzylidene)cyclopentanone]: in the series with mushroom tyrosinase [1], the “fold lower IC50 than kojic acid” value is recorded as “about 16 fold” and it took 1.74 µM to reach half-maximal inhibition (IC50). Also, in the series with mushroom tyrosinase [1] (diphenolase activity, L-DOPA, 25 °C, Figure 1), the “course of enzyme activity inhibition” value was “concentration-dependent”. The “fold lower IC50 than 4-butylresorcinol” value in the series with mushroom tyrosinase [1] (vs 4-butylresorcinol (11.27 μM)) is roughly 6 fold. Moreover, in the series with mushroom tyrosinase [2], the inhibition type result is “competitive”. In the series on CD-1 mice (female CD-1 mice, 1,200 mg/kg), the “Body Weight” value stood at 27.3 ± 2.9 g, the “Drinking Water” value is 4.2 ± 0.5 mL/day and the “Food Intake” value worked out at 4.0 ± 0.4 g/day. In the series on CD-1 mice (male CD-1 mice, 1,200 mg/kg), the “Body Weight” value stood at 30.9 ± 2.6 g, the “Drinking Water” value worked out at 5.6 ± 0.6 mL/day and the “Food Intake” value came out at 5.1 ± 0.5 g/day. The “autopsy, changes in organs” value with CD-1 mice is “no apparent changes”.
`COc1cc(C=C2CCC(=Cc3ccc(O)cc3)C2=O)cc(OC)c1O` [Compound 3e, 2-(4-Hydroxy-3,5-dimethoxybenzylidene)-5-(4-hydroxybenzylidene)cyclopentanone] showed a melting point of 259 to 261 °C. At mushroom tyrosinase [1], inhibition was half-maximal at 9.66 µM (IC50).
In turn, `CC(C)(C)c1cc(C=C2CCC(=Cc3ccc(O)cc3)C2=O)cc(C(C)(C)C)c1O` [Compound 3f, 2-(3,5-Di-tert-butyl-4-hydroxybenzylidene)-5-(4-hydroxybenzylidene)cyclopentanone] displayed a melting point of 233 to 235 °C. This molecule also yielded an IC50 on mushroom tyrosinase [1] of 168 µM.
The like results for `COc1cc(C=C2CCC(=Cc3ccc(O)cc3)C2=O)cc(Br)c1O` [Compound 3g, 2-(3-Bromo-4-hydroxy-5-methoxybenzylidene)-5-(4-hydroxybenzylidene)cyclopentanone] were, in that order, 241 to 243 °C and 173 µM.
For `O=C1C(=Cc2ccc(O)cc2)CCC1=Cc1cc(Br)c(O)c(Br)c1` [Compound 3h, 2-(3,5-Dibromo-4-hydroxybenzylidene)-5-(4-hydroxybenzylidene)cyclopentanone] the same measures were 286 to 288 °C and greater than 200 µM.
Regarding `COc1cc(C=C2CCC(=Cc3ccc(O)c(O)c3)C2=O)ccc1O` [Compound 3i, 2-(3,4-Dihydroxybenzylidene)-5-(4-hydroxy-3-methoxybenzylidene)cyclopentanone], the melting point was greater than 300 °C. Besides, in the series on mushroom tyrosinase [2], the inhibition type entry is “mixed-competitive”.
On to `COc1cc(C=C2CCC(=Cc3ccc(O)cc3O)C2=O)ccc1O` [Compound 3j, 2-(2,4-Dihydroxybenzylidene)-5-(4-hydroxy-3-methoxybenzylidene)cyclopentanone], for which the inhibition type entry with mushroom tyrosinase [2] was “competitive”. Besides, in the series with CD-1 mice (female CD-1 mice, 1,200 mg/kg), the “Body Weight” value is reported as 26.9 ± 2.1 g, the “Drinking Water” value was determined as 4.1 ± 0.4 mL/day and the “Food Intake” value is reported as 3.9 ± 0.5 g/day. Also, in the series on CD-1 mice (male CD-1 mice, 1,200 mg/kg), the “Body Weight” value came out at 30.1 ± 2.8 g, the “Drinking Water” value was 5.4 ± 0.5 mL/day and the “Food Intake” value came to 5.2 ± 0.4 g/day. Further, the “autopsy, changes in organs” value in the series with CD-1 mice is listed as “no apparent changes”.
As to `COc1cc(C=C2CCC(=Cc3cc(OC)c(O)c(OC)c3)C2=O)ccc1O` [Compound 3k, 2-(4-Hydroxy-3,5-dimethoxybenzylidene)-5-(4-hydroxy-3-methoxybenzylidene)cyclopentanone], the melting point lay in the range of 129 to 131 °C. The molecule also displayed an IC50 against mushroom tyrosinase [1] greater than 200 µM.
Consider `COc1ccc(C=CC(=O)C=Cc2ccc(O)cc2)cc1` [Compound 4a, 1-(4-Hydroxyphenyl)-5-(4-methoxyphenyl)penta-1,4-dien-3-one], for which the melting point is 114 to 116 °C. On mushroom tyrosinase [1], this molecule returned an IC50 of 183 µM.
The like results for `COc1cc(C=CC(=O)C=Cc2ccc(O)cc2)ccc1O` [Compound 4b, 1-(4-Hydroxy-3-methoxyphenyl)-5-(4-hydroxyphenyl)penta-1,4-dien-3-one] were, in that order, 98 to 101 °C and 46.2 µM.
`O=C(C=Cc1ccc(O)cc1)C=Cc1ccc(O)c(O)c1` [Compound 4c, 1-(3,4-Dihydroxyphenyl)-5-(4-hydroxyphenyl)penta-1,4-dien-3-one] came in with a melting point of 181 to 183 °C. On mushroom tyrosinase [1], this molecule came in with an IC50 of 4.64 µM.
Turning to `COc1cc(C=CC(=O)C=Cc2ccc(O)cc2)cc(OC)c1O` [Compound 4d, 1-(4-Hydroxy-3,5-dimethoxyphenyl)-5-(4-hydroxyphenyl)penta-1,4-dien-3-one], the melting point was 93 to 95 °C. In addition, the IC50 against mushroom tyrosinase [1] is 7.2 µM.
In turn, `O=C(C=Cc1ccc(O)cc1)C=Cc1cc(Br)c(O)c(Br)c1` [Compound 4e, 1-(3,5-Dibromo-4-hydroxyphenyl)-5-(4-hydroxyphenyl)penta-1,4-dien-3-one] registered a melting point of 110 to 113 °C. The molecule further showed an IC50 against mushroom tyrosinase [1] greater than 200 µM.

For orientation: IC50 means the concentration at which inhibition is half-maximal. A lower IC50 goes with higher potency. As usually defined, the melting point is the temperature of the solid-liquid transition.
